# Data published in patent US20150071918A1, “PEPTIDES FOR THE TREATMENT OF CANCER” (H. LEE MOFFITT CANCER CENTER AND RESEARCH INSTITUTE, INC., priority 2012, published 2015).
# Where a SMILES comes first, the peptide text is derived from it. [ ]: non-standard residue; d: D form. The star is where a group is joined. Biotin = O=C1N[C@H]2[C@H](CS[C@H]2CCCCC(=O)*)N1
# Legend:
# [1] = target: T1, full length recombinant human CD44 (Homo sapiens, UniProt P16070); assay: ELISA based binding assay, biotin-HYD1 on NeutrAvidin coated wells; conditions: biotin as control
# T1 construct: purchased Abnova
# From the text: FIG. 41. […] A primary CD44 antibody and HRP conjugated secondary antibody and chemiluminescence detection was used to quantify rCD44 binding to immobilized biotin-HYD1.
# FIG. 51. ELISA based binding assay confirms that biotin-HYD1 binds to full length recombinant human CD44 in a concentration dependent manner. Biotin was bound to NeutrAvidin coated wells to control for non-specific binding.
# The inventors used biotin-HYD1 as bait to pulldown binding complexes contained within membrane extracts of H929 MM cells. The pull down assay was directly coupled with an unbiased Mass-Spec analysis to identify HYD1 binding partners. […] NeutrAvidin beads were used to reduce non-specific binding. […] The inventors next determined whether α4 integrin could be detected by western blot analysis. […] To determine whether […] was indeed a direct binding partner of […] the inventors used recombinant CD44 and an ELISA as a readout of binding. […]
# The inventors performed a total membrane binding assay with biotin conjugated HYD1 and NeutrAvidin beads on NCI-H929 and U266 MM cells. Samples were then loaded on an SDS-PAGE gel, trypsin digested, and analyzed by Liquid Chromatography-Mass Spectrometry/Mass Spectrometry (LC-MS/MS). […] For more quantitative binding affinity analysis we produced the human globular ectodomain of CD44 comprising of amino acids 20-178. […]
# [2] = system: H929 myeloma cells; type: cell-based, human; conditions: H929 cells
# Experimental: H929 cells were treated for 24 hours with varying concentrations of peptide. Cell death was measured by Topro-3 staining and FACS analysis. The IC50 values were obtained from linear regression analysis and an average value was obtained from 3 independent experiments.
# Table 4 legend: Structure activity relationship in H929 myeloma cells of cyclic INTEGRIN INTERACTION INHIBITORS derivatives. The minimal bioactive core sequence of INTEGRIN INTERACTION INHIBITORS WSVVM (SEQ ID NO:33) was cyclized using 2 novel reduced amide bond beta turn promoters and KLKLK (SEQ ID NO:34) as the non-recognition sequence. H929 cells were treated with varying concentrations of the indicated peptide for 24 h. Cell viability was determined using Topro-3 staining and FACS analysis after drug treatment. IC50 values were generated from linear regressions generated from the dose response curves (n=mean of 3 independent experiments).
# A colony forming assay was used to compare induced cell death in H929 multiple myeloma cells. Cells were treated with integrin interaction inhibitors, shown in FIG. 5 and Table 4, and cell death was measured following 24 hour peptide treatment by TOPRO-3 staining and FACS analysis.
# [3] = system: CD44 and α4 integrin in membrane extracts; assay: Pull-down of membrane extract with biotin-conjugated peptide on NeutrAvidin beads, western blot / LC-MS/MS; type: binding; conditions: H929 cells, 30 μg membrane extract, western blot pan-CD44 antibody
# Experimental: FIG. 39. […] Thirty micrograms of membrane extract was incubated with either biotin or biotin-HYD1 bound NeutrAvidin beads. The first lane is 30 μg of membrane extract only. CD44 was detected by western blot analysis using a pan-CD44 antibody.
# FIGS. 40A-40B. […] Biotin-HYD1 or biotin was immobilized to NeutraAvidin beads prior to incubation with 150 μg of membrane extract. The blot was initially probed for α4 integrin and subsequently stripped and re-probed with CD44 antibody.
# FIG. 65. […] Total cell membranes were isolated from U937 or HL-60 cells. Membrane lysate (150 μg) was incubated with 500 μg of biotin or biotin-MTI-101 bound to NeutrAvidin beads. […]
# The inventors used biotin-HYD1 as bait to pulldown binding complexes contained within membrane extracts of H929 MM cells. […] The inventors next determined whether α4 integrin could be detected by western blot analysis. […] To determine whether […] was indeed a direct binding partner of […] the inventors used recombinant CD44 and an ELISA as a readout of binding. […]
# We performed a total membrane binding assay with biotin conjugated HYD1 and NeutrAvidin beads on NCI-H929 and U266 MM cells. Samples were then loaded on an SDS-PAGE gel and analyzed by LC-MS/MS. The adhesion receptor CD44 was determined to be among the adhesion receptors that had the most peptide match hits and was confirmed as a valid hit via Western Blot analysis. […]
# T1 sequence (P16070 21-699 isoform P16070-4 limits assumed): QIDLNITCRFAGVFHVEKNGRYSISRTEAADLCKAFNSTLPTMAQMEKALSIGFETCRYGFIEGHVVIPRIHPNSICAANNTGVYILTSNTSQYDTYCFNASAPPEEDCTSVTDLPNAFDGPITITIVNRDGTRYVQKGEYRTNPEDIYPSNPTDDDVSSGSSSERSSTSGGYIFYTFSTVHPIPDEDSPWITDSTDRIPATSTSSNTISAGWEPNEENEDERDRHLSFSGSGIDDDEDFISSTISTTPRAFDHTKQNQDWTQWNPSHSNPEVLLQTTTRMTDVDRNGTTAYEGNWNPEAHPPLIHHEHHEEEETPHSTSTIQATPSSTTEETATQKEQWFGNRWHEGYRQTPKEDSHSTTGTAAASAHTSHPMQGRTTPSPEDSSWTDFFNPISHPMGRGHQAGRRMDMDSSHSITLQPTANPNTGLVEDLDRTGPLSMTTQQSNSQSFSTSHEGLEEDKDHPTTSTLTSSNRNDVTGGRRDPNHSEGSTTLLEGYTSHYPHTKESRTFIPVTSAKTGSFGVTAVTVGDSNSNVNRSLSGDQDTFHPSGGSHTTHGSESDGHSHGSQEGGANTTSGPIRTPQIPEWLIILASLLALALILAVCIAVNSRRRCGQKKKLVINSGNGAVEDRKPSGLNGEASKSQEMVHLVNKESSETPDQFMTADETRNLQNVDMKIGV
structure (smiles),measurement,setting,value
CC[C@@H](C)[C@@H](NC(=O)[C@@H](CCCCN)NC(=O)CCCC[C@@H]1SC[C@@H]2NC(=O)N[C@@H]21)C(=O)N[C@H](CCCCN)C(=O)N[C@H](CCSC)C(=O)N[C@@H](C(=O)N[C@@H](C(=O)N[C@H](CO)C(=O)N[C@H](Cc1c[nH]c2ccccc12)C(=O)N[C@H](CCCCN)C(=O)NCC(=O)O)[C@H](C)CC)C(C)C [biotin-HYD1] (Biotin-[dK][dI][dK][dM][dV][dI][dS][dW][dK]G-OH; N-terminus and C-terminus assumed),binding to recombinant CD44 in ELISA,[1],binds recombinant CD44 in a direct ELISA
same,binding to recombinant CD44 in ELISA,[1]; listed as biotin conjugated HYD1,CD44 bound to biotin conjugated HYD1 in a concentration dependent manner
same,IC50 of biotinylated peptide relative to HYD1,[2],slightly decreased
same,pull-down of binding partners from H929 membrane extract,[3],interacts with CD44 in H929 cells
